# Legend:
# [1] = tested on: Fph enzymes in live S. aureus cells (USA300); assay: Competition of FP-alkyne labeling in live S. aureus cells; format: cell-based, Staphylococcus aureus; settings: 100 μM compound, live S. aureus cells
# Description: (§1) One colony of each of S. aureus wild-type and transposon mutants fphB::Tn, fphE::Tn and fphH::Tn picked from growth on a Tryptic soya agar plate were inoculated in 5 mL of Tryptic soya broth (TSB). The overnight bacterial cultures were spun down at 5,000 g for 10 min and pellet was collected. The pellets were washed twice in 1X PBS buffer and resuspended in the same buffer. Cells were first preincubated with the indicated concentrations of inhibitors for 2hr at 37°C. The cells were washed twice with 1X PBS buffer. The resuspended pellets were incubated with Fluorophosphonate-alkyne (FP-alkyne) for 30 min at 37°C. Cells were washed again twice with 1X PBS buffer and resuspended in with 1X PBS and 0.1% Triton–X and lysed by beat beating at 4°C. Next, lysed cells (20 μL) were mixed with 2.16 μL of freshly prepared click mix (0.5 μL of 50 mM CuSO4 in H2O, 1.16 μL of 100 mM BTTAA in DMSO, and 0.5 μL of N3-Cy5 in DMSO) and 1.16 μL of 300 mM sodium ascorbate solution in H2O and incubated at 37 °C for 30 min. Next step, 20 μL of 4X SDS loading buffer was added in each sample and boiled at 100 °C for 10 min. The processed samples were allowed to cool and analyzed by SDS-PAGE (12%) running at 120 V in an electrophoresis chamber. Cy5 fluorescence was imaged using the Cy5 channel on a Typhoon 9410 Imager (Amersham Biosciences).
# [2] = target: T1, Fph enzymes in live S. aureus cells (USA300) (Staphylococcus aureus, UniProt Q2FDS6); assay: as above; format: cell-based; settings: live cells, doses 5–100 μM, 120 min preincubation
# T1 construct: endogenous in cells; host or cells: live S. aureus USA300 (LAC) wild-type cells
# Description: as §1
# rFphH = target: T2, rFphH (Staphylococcus aureus, UniProt A0A0H2XJL0); assay: FP-Cy5 active site labeling of recombinant protein, rFphH; format: binding; settings: recombinant protein
# T2 construct: otherwise full-length FphE (Uniprot ID Q2FDS6) and FphH (A0A0H2XJL0) proteins; His6 (3C-cleavable, pETNKI-his-3C-LIC vector) (N); made in house; E. coli is inferred from the pET28a-type vector, IPTG induction and LB/kanamycin
# T2 sequence (A0A0H2XJL0 1-246): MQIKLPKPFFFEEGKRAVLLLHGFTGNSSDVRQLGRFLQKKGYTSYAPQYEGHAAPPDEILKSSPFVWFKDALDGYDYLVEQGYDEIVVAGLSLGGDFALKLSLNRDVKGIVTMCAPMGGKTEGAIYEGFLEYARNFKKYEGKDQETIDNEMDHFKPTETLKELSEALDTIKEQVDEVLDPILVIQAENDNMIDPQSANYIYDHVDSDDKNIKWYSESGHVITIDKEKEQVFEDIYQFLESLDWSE
# Description: For activity-based protein labeling experiments, 500 nM of rFphB, rFphE and rFphH in 1X PBS and 0.1% Triton–X were preincubated with different concentrations of inhibitors or DMSO for 2hr at room temperature, followed by adding 300 nM of fluorophosphonate (FP) alkyne and incubated for 30 min at room temperature. Next, 20 μL of the reaction volume were mixed with 2.16 μL of freshly prepared click mix (0.5 μL of 50 mM CuSO4 in H2O, 1.16 μL of 100 mM BTTAA in DMSO, and 0.5 μL of N3-Cy5 in DMSO) and 1.16 μL of 300 mM sodium ascorbate solution in H2O. Samples were incubated at 37°C for 30 min, boiled in SDS loading buffer and analyzed by SDS–PAGE. Cy5 fluorescence was imaged using the Cy5 channel on a Typhoon 9410 Imager (Amersham Biosciences).
# T1 sequence (Q2FDS6 whole entry): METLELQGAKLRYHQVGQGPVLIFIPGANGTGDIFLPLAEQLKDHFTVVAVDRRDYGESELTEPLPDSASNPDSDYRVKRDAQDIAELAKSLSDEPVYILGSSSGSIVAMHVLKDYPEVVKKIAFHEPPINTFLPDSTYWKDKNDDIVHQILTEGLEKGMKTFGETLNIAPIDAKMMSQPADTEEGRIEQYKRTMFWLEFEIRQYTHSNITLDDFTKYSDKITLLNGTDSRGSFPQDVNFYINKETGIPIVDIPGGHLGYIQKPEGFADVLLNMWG
smiles,measurement,setting,value
"OB(O)c1csc2ccccc12 [Z27, Benzo[b]thiophen-3-ylboronic acid]",competition of FP labeling in live cells (in words),[1],only blocked FP labeling of FphE in live cells
same,concentration completely inhibiting FphE labeling,[2],≥ 50 µM
same,concentration inhibiting FP-Cy5 labeling of rFphH,rFphH,> 50 µM
